Measured values taken from article PMC5986790, “Rational Discovery of (+) (S) Abscisic Acid as a Potential Antifungal Agent: a Repurposing Approach” (Scientific Reports, 2018).

Experiments:
yeast chorismate mutase [1] = target: T1, yeast chorismate mutase (Saccharomyces cerevisiae, UniProt P32178); test: HPLC of chorismic acid and phenylpyruvate (prephenate converted by acid); type: biochemical; design: gene ARO7; native enzyme in crude sonicated yeast cell extract, not purified; homodimer (known biology); 256 residues; details: 1 mM chorismic acid; yeast sonicate; Tris-HCl pH 8; 30 °C; ABA 10-500 µM
yeast chorismate mutase [2] = target: T1, yeast chorismate mutase; design: gene ARO7; details: 1 mM chorismic acid; yeast sonicate; Tris-HCl pH 8; 30 °C; tyrosine 10-500 µM; allosteric
yeast chorismate mutase [3] = target: T1, yeast chorismate mutase; type: biochemical; design: gene ARO7; native enzyme in crude sonicated yeast cell extract, not purified; homodimer (known biology); 256 residues; details: 1 mM chorismic acid; yeast sonicate; Tris-HCl pH 8; 30 °C

T1 sequence (P32178 whole entry): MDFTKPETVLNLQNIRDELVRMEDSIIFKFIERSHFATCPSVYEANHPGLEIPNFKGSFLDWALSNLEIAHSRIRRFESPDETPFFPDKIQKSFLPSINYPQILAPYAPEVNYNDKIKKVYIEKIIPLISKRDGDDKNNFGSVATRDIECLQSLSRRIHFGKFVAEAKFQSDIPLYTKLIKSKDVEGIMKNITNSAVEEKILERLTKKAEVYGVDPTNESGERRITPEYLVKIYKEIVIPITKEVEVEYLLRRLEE

## CC1=CC(=O)CC(C)(C)[C@@]1(O)/C=C/C(C)=C\C(=O)O [(+)-Abscisic acid, 5-(1-hydroxy-2,6,6-trimethyl-4-oxo-2-cyclohexene-1-yl)-3-methyl-pentadienoic acid]
Yeast chorismate mutase [1]
  inhibitory concentration (range, not an IC50): 200 to 300 µM

## N[C@@H](Cc1ccc(O)cc1)C(=O)O [Tyrosine]
Yeast chorismate mutase [2]
  optimal inhibitor concentration (not an IC50): 100 µM

## C=C(O[C@@H]1C=C(C(=O)O)C=C[C@H]1O)C(=O)O [chorismic acid]
Yeast chorismate mutase [3]
  HPLC of chorismic acid and phenylpyruvate (prephenate converted by acid): yeast chorismate mutase catalysed the conversion of externally added chorismic acid to prephenic acid
